In US12545659B2, “IRAK degraders and uses thereof” (Kymera Therapeutics, Inc., priority 2019, dated 2026):
Like-named read-outs stand apart in the source and are kept apart here.

Experiments:
[1] = tested on: SU-DHL2 (MYD88 mutant DLBCL cell line); experiment: SU-DHL2 viability, CTG; assay type: cell-based; conditions: Homo sapiens, SU-DHL-2, read-out: SU-DHL2 Viability, CTG IC50
OCI-LY19 (MYD88 WT line) = experiment: OCI-LY19 viability, CTG; assay type: cell-based; conditions: Homo sapiens, in vitro
IRAK4 = target: T1, IRAK4 (Homo sapiens, UniProt Q9NWZ3); experiment: IRAK4 MSD Degradation in OCI-LY10; assay type: cell-based; conditions: OCI-LY10 cells
T1 construct: endogenous in cells; host or cells: OCI-LY10
T1 sequence (Q9NWZ3 1-460): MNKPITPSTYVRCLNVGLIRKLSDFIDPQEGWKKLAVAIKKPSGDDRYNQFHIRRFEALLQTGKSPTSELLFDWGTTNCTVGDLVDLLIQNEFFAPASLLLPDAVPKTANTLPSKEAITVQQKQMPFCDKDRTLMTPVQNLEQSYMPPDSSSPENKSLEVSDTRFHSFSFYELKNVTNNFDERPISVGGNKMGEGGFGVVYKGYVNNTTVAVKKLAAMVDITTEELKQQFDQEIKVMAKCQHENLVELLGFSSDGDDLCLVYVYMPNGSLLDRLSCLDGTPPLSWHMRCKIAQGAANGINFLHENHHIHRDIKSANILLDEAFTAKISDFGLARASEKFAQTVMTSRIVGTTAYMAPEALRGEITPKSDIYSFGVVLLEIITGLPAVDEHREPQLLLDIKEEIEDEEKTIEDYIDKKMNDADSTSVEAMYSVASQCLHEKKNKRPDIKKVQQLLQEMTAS
In short: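 IRAK4 remaining in lysates was read by Meso Scale electrochemiluminescence sandwich (2H9 capture, Y279 plus SULFO-TAG detection). Cells were exposed 4 to 24 h at 37 °C to eight 3-fold dilutions from 1 to 10 μM final top; three-parameter logistic fit gave DC50.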

U2932 (MYD88 WT line) = experiment: U2932 viability, CTG; assay type: cell-based; conditions: Homo sapiens, in vitro
SU-DHL6 (MYD88 WT line) = experiment: SU-DHL6 viability, CTG; assay type: cell-based; conditions: Homo sapiens, SU-DHL-6, in vitro
[2] = tested on: OCI-LY10 (MYD88 mutant DLBCL cell line); experiment: OCI-LY10 viability, CTG; assay type: cell-based; conditions: Homo sapiens, OCI-Ly10, read-out: OCI-LY10 Viability, CTG IC50
[3] = target: T2, Aiolos (protein product of gene IKZF3) (Homo sapiens, UniProt Q9UKT9); experiment: Aiolos degradation in OCI-LY10 (quantitative immunoblotting); assay type: cell-based; conditions: OCI-LY10 cells, 6 h, immunoblot relative to actin
T2 construct: endogenous in cells; host or cells: OCI-LY10
Description: (§1) Degradation of Ikaros (protein product of gene IKZF1) and Aiolos (protein product of gene IKZF3) were determined by quantitative immunoblotting as follows. OCI-LY10 cells, 2×10^6 cells/well, were treated with listed concentrations of IRAK4 degraders or control compounds in 6 well plates for 6 h. Cells were collected, washed with cold PBS, lysed in RIPA buffer (Boston BioProducts BP-115D) with protease/phosphatase inhibitor cocktail (Roche 05892791001/Roche 04906837001) and centrifuged at 13000 RPM for 20 min to precipitate insoluble material. The supernatant fraction was diluted in SDS-PAGE loading buffer (Beyotime Bio P0015) and 20 L of each sample was resolved on 4-12% Bis-Tris SDS-PAGE gels (Novex, WG1402BOX). Resolved samples were transferred to nitrocellulose membranes by wet electro-transfer method at […] for 1.5 h. The membrane was blocked with LICOR blocking buffer (LI-COR, 927-50000) for 1 hour, washed three times with TBST (CST #9997S) for 5 minutes each and incubated with primary antibody prepared in block buffer with 0.1% Tween-20 (Solarbio, P8220) at 4° C. overnight. Ikaros antibody was rabbit monoclonal D6N9Y (CST #14859), at 1:1000 dilution. Aiolos antibody was rabbit monoclonal D1C1E (CST #15103), at 1:1000 dilution. Signal was normalized to mouse anti-beta-Actin monoclonal 8H10D10 (CST #3700) used at 1:10,000 dilution. After incubation in primary antibodies, membranes were washed three times with TBST, 5 minutes each, incubated with fluorescently labeled secondary antibodies anti-rabbit IgG (Licor, 926-32211) at 1:5000 dilution; anti-mouse IgG (LI-COR, 926-68070) at 1:5000 dilution, for 1 hour at RT. After incubation in secondary, membranes were washed three times with TBST, 5 minutes each and read on LICOR Odyssey imager. Data was reported as signal for Ikaros or Aiolos relative to signal for actin, and normalized to DMSO-treated control.
(§2) The letter codes for Ikaros and Aiolos DC50 include: A (<0.05 μM); B (0.05-0.1 μM); C (0.1-0.5 μM); D (0.5-1.0 μM); and E (>1.0 μM).

OCI-LY10 cells = experiment: CTG Cell Viability Assay - OCI-LY10; assay type: cell-based; conditions: Homo sapiens
Description: (§3) Compound-mediated viability effect on OCI-LY10 or SUDHL-2 was quantitatively determined using the CellTiter-Glo® Luminescent Cell Viability Assay kit from Promega (Catalog number G7570) following manufacturer's recommended procedures. Briefly, OCI-LY10 or SUDHL-2 cells were seeded into 384 well plates (Grenier Bio-One, Catalog number 781080) with a density of 10,000 cells per well. Compounds were then added to the assay plate with final top concentration of 10 M and 1:3 dilution series with total of 9 doses. The final DMSO concentration was normalized to 0.2%. The assay plates were incubated at 37° C. for 4 days under 5% CO2. Then the assay plate was equilibrated at room temperature for 10 minutes. To determine cell viability, L CellTiter Glo reagent was added to each well and the assay plate was centrifuged at 1000 rpm for 30 second, incubated at room temperature for 10 min, and analyzed by detecting the luminescence using a multimode plate reader (EnVision 2105, PerkinElmer). The data was then analyzed by software Prism 7.0 from GraphPad and the dose response curves were fit using a three-parameter logistic equation to calculate IC50.

SUDHL-2 cells = experiment: CTG Cell Viability Assay - SUDHL-2; assay type: cell-based; conditions: Homo sapiens, SU-DHL-2, 96 h
Description: as §3

[4] = target: T3, Ikaros (protein product of gene IKZF1) (Homo sapiens, UniProt Q13422+Q96SW2); experiment: Ikaros degradation in OCI-LY10 (quantitative immunoblotting); assay type: cell-based; conditions: OCI-LY10 cells, 6 h, immunoblot relative to actin; read-out: Ikros Degradation in OCI-LY10: DC50
T3 construct: endogenous in cells; host or cells: OCI-LY10
Description: as §1, §2

[5] = cn_pd bond
[6] = cn_pd bond, 14-membered ring
[7] = 24 hrs incubation, read-out: IRAK4 degradation in OCI-LY10 at 24 hrs: DC50
[8] = 4 hrs incubation, read-out: IRAK4 degradation in OCI-LY10 at 4 hrs: DC50
[9] = 96 h, OCI-LY10 cells, 4 days, CellTiter-Glo, read-out: CTG Cell Viability Assay - OCI-LY10: IC50
[10] = SUDHL-2 cells, 4 days, CellTiter-Glo, read-out: CTG Cell Viability Assay - SUDHL-2: IC50

T2 sequence (Q9UKT9 whole entry): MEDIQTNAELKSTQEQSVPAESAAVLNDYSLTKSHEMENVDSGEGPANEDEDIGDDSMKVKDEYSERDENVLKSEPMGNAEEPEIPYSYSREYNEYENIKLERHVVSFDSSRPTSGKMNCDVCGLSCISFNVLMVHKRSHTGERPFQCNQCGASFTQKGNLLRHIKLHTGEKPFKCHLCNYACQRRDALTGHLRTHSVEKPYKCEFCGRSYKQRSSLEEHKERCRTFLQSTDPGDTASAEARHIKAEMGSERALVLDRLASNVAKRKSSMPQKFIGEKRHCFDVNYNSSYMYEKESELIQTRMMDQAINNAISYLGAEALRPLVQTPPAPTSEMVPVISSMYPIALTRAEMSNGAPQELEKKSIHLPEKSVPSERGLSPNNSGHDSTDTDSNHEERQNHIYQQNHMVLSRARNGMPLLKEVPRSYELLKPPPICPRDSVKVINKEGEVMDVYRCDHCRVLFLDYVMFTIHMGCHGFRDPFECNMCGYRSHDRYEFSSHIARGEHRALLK
T2 sequence (Q96SW2 whole entry, further chain): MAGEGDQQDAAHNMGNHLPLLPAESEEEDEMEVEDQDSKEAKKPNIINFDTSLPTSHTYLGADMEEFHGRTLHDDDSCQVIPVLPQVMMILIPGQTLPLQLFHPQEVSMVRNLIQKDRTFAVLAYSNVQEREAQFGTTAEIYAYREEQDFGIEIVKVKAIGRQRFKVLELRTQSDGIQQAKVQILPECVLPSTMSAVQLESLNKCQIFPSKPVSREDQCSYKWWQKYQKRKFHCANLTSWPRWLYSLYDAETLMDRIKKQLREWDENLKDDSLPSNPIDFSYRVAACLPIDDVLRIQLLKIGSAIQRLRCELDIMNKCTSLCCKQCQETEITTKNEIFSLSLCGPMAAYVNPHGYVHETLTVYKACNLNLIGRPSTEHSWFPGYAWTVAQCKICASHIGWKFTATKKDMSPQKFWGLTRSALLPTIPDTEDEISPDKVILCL
T2 sequence (Q16531 whole entry partner): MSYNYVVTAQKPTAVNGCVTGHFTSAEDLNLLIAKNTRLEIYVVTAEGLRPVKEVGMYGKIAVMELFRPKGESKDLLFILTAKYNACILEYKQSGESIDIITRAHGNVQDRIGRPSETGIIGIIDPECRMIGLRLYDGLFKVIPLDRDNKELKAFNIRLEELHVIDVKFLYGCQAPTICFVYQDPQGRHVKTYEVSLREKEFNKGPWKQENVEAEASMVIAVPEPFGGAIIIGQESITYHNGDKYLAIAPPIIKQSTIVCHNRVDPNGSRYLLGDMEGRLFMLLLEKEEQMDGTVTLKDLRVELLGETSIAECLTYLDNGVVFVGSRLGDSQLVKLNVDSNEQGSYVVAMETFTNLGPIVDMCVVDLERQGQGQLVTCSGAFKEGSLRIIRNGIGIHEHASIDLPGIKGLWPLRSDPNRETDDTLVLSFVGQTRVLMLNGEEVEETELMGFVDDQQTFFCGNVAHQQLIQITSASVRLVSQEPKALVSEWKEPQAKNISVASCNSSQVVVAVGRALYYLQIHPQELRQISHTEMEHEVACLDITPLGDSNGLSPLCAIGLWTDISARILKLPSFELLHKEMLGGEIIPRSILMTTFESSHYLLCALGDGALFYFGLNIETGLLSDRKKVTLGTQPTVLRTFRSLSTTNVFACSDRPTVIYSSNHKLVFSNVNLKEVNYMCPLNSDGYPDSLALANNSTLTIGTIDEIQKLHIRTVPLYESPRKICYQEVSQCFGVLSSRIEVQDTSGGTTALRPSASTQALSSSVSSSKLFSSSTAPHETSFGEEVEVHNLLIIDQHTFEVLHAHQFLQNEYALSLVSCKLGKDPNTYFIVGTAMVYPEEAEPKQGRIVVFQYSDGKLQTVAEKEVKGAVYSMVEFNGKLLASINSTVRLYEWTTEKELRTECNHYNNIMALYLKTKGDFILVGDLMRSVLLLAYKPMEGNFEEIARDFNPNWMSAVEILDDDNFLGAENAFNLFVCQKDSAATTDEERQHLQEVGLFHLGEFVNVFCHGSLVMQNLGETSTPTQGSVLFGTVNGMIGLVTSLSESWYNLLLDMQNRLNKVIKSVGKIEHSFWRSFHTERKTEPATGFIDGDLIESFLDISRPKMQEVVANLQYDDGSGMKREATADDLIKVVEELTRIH
T3 sequence (Q13422 whole entry): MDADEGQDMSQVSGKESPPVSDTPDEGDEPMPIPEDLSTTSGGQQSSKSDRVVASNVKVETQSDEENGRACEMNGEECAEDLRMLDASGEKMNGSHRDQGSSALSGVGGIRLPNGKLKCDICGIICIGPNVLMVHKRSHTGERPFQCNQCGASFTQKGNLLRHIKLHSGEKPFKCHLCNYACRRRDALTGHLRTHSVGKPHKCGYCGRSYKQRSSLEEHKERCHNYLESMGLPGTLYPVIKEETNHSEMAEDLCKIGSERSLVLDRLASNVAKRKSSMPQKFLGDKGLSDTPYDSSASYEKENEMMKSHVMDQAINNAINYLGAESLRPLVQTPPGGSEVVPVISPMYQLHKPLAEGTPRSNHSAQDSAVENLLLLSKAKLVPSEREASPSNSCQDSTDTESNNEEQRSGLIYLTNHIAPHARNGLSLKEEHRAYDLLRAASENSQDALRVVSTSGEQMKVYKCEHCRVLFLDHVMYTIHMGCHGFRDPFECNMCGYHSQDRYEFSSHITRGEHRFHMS
T3 sequence (Q96SW2 whole entry): as the sequence (Q96SW2 whole entry, further chain) above
T3 sequence (Q16531 whole entry partner): as the sequence (Q16531 whole entry partner) above

Compound: CN(C[C@H]1CC[C@H](n2cc3cc(NC(=O)c4cccc(C(F)(F)F)n4)c(C(C)(C)O)cc3n2)CC1)C1CCN(Cc2cccc3c2n(C)c(=O)n3C2CCC(=O)NC2=O)CC1 (stereo partly shown) [I-1]
- IC50 [1]: > 10000 nM
- IC50 (OCI-LY19 (MYD88 WT line)): > 10000 nM
- DC50 (IRAK4; [7]): 100 to 500 nM
- IC50 (U2932 (MYD88 WT line)): > 10000 nM
- IC50 (SU-DHL6 (MYD88 WT line)): 5600 nM
- IC50 [2]: > 10000 nM

Compound: COc1cc2nn([C@H]3CC[C@H](CN4CCC5(CC4)CC(CCNc4cccc6c4C(=O)N(C4CCC(=O)NC4=O)C6=O)C5)CC3)cc2cc1NC(=O)c1cccc(C(C)(F)F)n1 (stereo partly shown) [I-63, 6-(1,1-Difluoroethyl)-N-[2-[4-[[2-[2-[[2-(2,6-dioxo-3-piperidyl)-1,3-dioxo-isoindolin-4-yl]amino]ethyl]-7-azaspiro[3.5]nonan-7-yl]methyl]cyclohexyl]-6-methoxy-indazol-5-yl]pyridine-2-carboxamide]
- DC50 (IRAK4; [8]): < 50 nM
- DC50 (IRAK4; [7]): 50 to 100 nM
- DC50 [3]: < 50 nM
- IC50 (OCI-LY10 cells; OCI-Ly10, 96 h, read-out: CTG Cell Viability Assay - OCI-LY10: IC50 (μM)): 0.05 to 0.1 µM
- IC50 (SUDHL-2 cells; read-out: CTG Cell Viability Assay - SUDHL-2: IC50 (μM)): 0.1 to 0.5 µM
- DC50 [4]: < 50 nM

Compound: 12-((1R,4R)-4-(hydroxymethyl)cyclohexyl)-12H-5,10-dioxa-2-aza-1(5,6)-indazola-4(2,6)-pyridinacyclodecaphan-3-one
- ring closure, isolated yield ([5]; 13-membered ring, Pd2(dba)3/Xantphos/Cs2CO3, dioxane, 18.1 mM, 80.0 °C): 55%

Compound: NC(=O)c1cccc(OCCO[C@@H]2CCN(c3cc4nn(C5CCC(CO)CC5)cc4cc3Br)C2)c1 (stereo partly shown)
- ring closure, yield after HPLC ([6]; the molecule shown is the open-chain precursor, BrettPhos-Pd-G4/BrettPhos/Cs2CO3, dioxane, 53.8 mM, 60.0 °C): 31%

Compound: COc1cc2nn([C@H]3CC[C@H](CN4CCC5(CC4)CC(CNc4cccc6c4C(=O)N(C4CCC(=O)NC4=O)C6=O)C5)CC3)cc2cc1NC(=O)c1cccc(C(F)(F)F)n1 (stereo partly shown) [I-201, N-[2-[4-[[2-[[[2-(2,6-dioxo-3-piperidyl)-1,3-dioxo-isoindolin-4 yl]amino]methyl]-7-azaspiro[3.5]nonan-7-yl]methyl]cyclohexyl]-6-methoxy-indazol-5-yl]-6-(trifluoromethyl)pyridine-2-carboxamide]
- DC50 (IRAK4; [8]): < 50 nM
- DC50 (IRAK4; [7]): 50 to 100 nM
- DC50 [3]: < 50 nM
- IC50 (OCI-LY10 cells; [9]): < 0.05 µM
- IC50 (SUDHL-2 cells; [10]): > 1 µM
- DC50 [4]: 50 to 100 nM

Compound: NC(=O)c1cccc(OCCO[C@H]2CCN(c3cc4nn(C5CCC(CO)CC5)cc4cc3Br)C2)c1 (stereo partly shown)
- ring closure, isolated yield ([5]; the molecule shown is the open-chain precursor, 14-membered ring, BrettPhos Pd G3/Cs2CO3, DMA, 100.0 mM, 90.0 °C): 33%

Compound: COc1cc2nn([C@H]3CC[C@H](CN(C)C4CCN(c5cccc6c5n(C)c(=O)n6C5CCC(=O)NC5=O)CC4)CC3)cc2cc1NC(=O)c1cccc(C(F)(F)F)n1 (stereo partly shown) [I-247, N-[2-[4-[[[1-[1-(2,6-dioxo-3-piperidyl)-3-methyl-2-oxo-benzimidazol-4-yl]-4-piperidyl]-methyl-amino]methyl]cyclohexyl]-6-methoxy-indazol-5-yl]-6-(trifluoromethyl)pyridine-2-carboxamide]
- DC50 (IRAK4; [8]): < 50 nM
- IC50 (OCI-LY10 cells; [9]): > 1 µM

Compound: NC(=O)c1cccc(OCCCCCOc2cc3nn(C4CCC(CO)CC4)cc3cc2Br)n1 (stereo not shown)
- ring closure, isolated yield ([5]; the molecule shown is the open-chain precursor, 14-membered ring, BrettPhos Pd G4/Cs2CO3, DMA, 9.4 mM, 80.0 °C): 39%

Compound: COc1cc2nn([C@H]3CC[C@H](CN4CC5(CC(CCNc6cccc7c6C(=O)N(C6CCC(=O)NC6=O)C7=O)C5)C4)CC3)cc2cc1NC(=O)c1cccc(C(C)(F)F)n1 (mixture of isomers) [I-93, 6-(1,1-difluoroethyl)-N-[2-[4-[[6-[2-[[2-(2,6-dioxo-3-piperidyl)-1,3-dioxo-isoindolin-4-yl]amino]ethyl]-2-azaspiro[3.3]heptan-2-yl]methyl]cyclohexyl]-6-methoxy-indazol-5-yl]pyridine-2-carboxamide]
- DC50 (IRAK4; [8]): < 50 nM
- DC50 (IRAK4; [7]): 50 to 100 nM
- DC50 [3]: < 50 nM
- IC50 (OCI-LY10 cells; [9]): < 0.05 µM
- IC50 (SUDHL-2 cells; [10]): 0.1 to 0.5 µM
- DC50 [4]: < 50 nM

Compound: 12-((1R,4R)-4-(hydroxymethyl)cyclohexyl)-12H-5,8,11-trioxa-2-aza-1(5,6)-indazola-4(2,6)-pyridinacycloundecaphan-3-one
- ring closure, yield after HPLC ([6]; BrettPhos Pd G4/Cs2CO3, DMA, 21.2 mM, 80.0 °C): 58%
